Experimental data: ChEMBL document CHEMBL1201862, “PubChem BioAssay data set” (2004)
Active and inactive are the calls of the source.

Tests used:
[1] = biological target: Keap1/Nrf2 (Homo sapiens, UniProt Q14145); experiment: Keap1-Nrf2 protein-protein interaction inhibitors, dose response, biochemical, fluorescence polarization, cherry-picked samples (AID 588683)
[2] = biological target: T1, Histone-lysine N-methyltransferase NSD2 (Homo sapiens, UniProt O96028); assay type: biochemical
T1 sequence (O96028 whole entry): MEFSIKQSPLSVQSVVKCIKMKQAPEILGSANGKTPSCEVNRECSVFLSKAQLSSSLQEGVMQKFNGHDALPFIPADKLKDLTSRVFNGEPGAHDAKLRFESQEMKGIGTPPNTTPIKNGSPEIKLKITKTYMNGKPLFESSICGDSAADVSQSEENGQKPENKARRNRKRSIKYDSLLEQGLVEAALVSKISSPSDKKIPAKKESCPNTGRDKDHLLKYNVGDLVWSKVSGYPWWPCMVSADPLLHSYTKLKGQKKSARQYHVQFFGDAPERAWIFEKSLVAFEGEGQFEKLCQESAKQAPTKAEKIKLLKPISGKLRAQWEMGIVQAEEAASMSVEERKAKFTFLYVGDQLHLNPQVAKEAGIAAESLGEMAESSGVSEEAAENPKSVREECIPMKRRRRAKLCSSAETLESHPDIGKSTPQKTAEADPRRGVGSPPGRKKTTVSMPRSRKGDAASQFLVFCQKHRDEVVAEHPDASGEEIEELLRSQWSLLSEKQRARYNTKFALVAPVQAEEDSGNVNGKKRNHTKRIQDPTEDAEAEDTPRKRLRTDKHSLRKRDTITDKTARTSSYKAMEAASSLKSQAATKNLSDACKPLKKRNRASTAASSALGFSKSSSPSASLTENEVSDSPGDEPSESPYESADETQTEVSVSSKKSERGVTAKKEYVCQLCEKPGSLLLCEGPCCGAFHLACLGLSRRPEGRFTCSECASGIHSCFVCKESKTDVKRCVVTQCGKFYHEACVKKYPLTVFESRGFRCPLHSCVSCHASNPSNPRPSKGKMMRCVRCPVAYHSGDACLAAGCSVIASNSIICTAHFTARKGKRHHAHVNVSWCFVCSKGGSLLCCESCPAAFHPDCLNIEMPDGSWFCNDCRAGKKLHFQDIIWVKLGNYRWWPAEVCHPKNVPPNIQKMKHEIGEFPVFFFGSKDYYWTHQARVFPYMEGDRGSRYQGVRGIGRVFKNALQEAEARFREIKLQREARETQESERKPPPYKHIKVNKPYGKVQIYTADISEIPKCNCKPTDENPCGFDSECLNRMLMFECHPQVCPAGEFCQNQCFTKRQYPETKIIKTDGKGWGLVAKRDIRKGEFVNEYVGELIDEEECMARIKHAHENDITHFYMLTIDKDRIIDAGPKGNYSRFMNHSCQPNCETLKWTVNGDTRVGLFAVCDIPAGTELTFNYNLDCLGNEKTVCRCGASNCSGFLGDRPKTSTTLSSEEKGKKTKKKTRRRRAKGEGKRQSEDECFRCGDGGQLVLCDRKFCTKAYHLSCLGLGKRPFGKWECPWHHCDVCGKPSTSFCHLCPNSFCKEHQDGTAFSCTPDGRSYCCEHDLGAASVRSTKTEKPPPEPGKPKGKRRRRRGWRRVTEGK

[3] = biological target: T2, Aminopeptidase N (Plasmodium falciparum FcB1/Columbia, UniProt O96935); experiment: P. falciparum M1AAP inhibitors, biochemical, fluorogenic H-Leu-NHMec substrate, 1536-well (AID 1445); parameters: species or system Plasmodium falciparum 3D7, 3D7
T2 sequence (O96935 whole entry): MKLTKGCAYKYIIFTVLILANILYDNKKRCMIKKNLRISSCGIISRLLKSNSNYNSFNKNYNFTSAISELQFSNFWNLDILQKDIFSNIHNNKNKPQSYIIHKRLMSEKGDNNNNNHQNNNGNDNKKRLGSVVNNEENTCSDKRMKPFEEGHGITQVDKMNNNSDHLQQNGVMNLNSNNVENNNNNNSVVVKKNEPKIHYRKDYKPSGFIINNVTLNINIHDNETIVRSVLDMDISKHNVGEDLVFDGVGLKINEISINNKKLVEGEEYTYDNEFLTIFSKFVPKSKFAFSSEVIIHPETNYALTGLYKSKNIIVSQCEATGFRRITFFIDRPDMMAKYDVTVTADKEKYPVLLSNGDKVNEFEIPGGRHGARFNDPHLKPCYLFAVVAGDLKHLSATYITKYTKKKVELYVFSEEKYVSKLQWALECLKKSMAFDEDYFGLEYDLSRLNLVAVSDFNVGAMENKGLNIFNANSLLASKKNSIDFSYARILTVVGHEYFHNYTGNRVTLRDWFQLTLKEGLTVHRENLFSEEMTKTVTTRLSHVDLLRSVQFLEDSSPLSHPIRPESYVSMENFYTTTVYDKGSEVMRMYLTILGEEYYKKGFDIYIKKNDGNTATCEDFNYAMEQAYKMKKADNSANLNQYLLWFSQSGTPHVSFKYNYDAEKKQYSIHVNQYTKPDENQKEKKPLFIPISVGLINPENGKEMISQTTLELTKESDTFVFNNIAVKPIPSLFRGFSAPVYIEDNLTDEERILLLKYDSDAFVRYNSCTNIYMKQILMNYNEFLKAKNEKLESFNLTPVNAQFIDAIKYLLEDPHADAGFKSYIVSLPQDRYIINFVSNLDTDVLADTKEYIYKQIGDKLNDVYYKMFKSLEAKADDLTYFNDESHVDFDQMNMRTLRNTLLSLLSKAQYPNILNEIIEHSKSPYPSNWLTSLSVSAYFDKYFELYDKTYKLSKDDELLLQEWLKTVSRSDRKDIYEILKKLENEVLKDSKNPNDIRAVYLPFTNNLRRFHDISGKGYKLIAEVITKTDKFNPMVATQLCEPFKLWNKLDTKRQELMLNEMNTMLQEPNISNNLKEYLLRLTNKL

[4] = biological target: Genome polyprotein (dengue virus type 2, UniProt P29990); experiment: Dengue-2 NS5 methyltransferase inhibitors, primary screen, biochemical, confirmation dose response (AID 588689); assay type: functional
[5] = biological target: E3 ubiquitin-protein ligase XIAP (Homo sapiens, UniProt P98170); experiment: Counter Screen using XIAP-Bir3 for Chemical Antagonists of Bir1/2 domains of IAP-family anti-apoptotic proteins. [Related pubchem assays (depositor defined):AID1018, AID1449, AID1514, AID1638, AID1749, AID1750, AID488957, AID488963]
[6] = biological target: Bifunctional protein GlmU (Mycobacterium tuberculosis, UniProt P9WMN3); experiment: Inhibitors of Mycobacterial Glucosamine-1-phosphate acetyl transferase (GlmU). Secondary screen.; parameters: species or system Mycobacterium tuberculosis H37Rv
[7] = biological target: Large T antigen (Simian virus 40, UniProt P03070); assay type: functional, Betapolyomavirus macacae;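 also: Confirmatory-stage PubChem screen for compounds that inhibit SV40 T antigen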
[8] = biological target: T3, Orexin receptor type 2 (Homo sapiens, UniProt O43614); experiment: Counterscreen assay for antagonists of the orexin 1 receptor (OX1R; HCRTR1): Fluorescence-based cell-based dose response assay for antagonists of the orexin 2 receptor (OX2R; HCRTR2), run by assay provider.; assay type: functional
T3 sequence (O43614 whole entry): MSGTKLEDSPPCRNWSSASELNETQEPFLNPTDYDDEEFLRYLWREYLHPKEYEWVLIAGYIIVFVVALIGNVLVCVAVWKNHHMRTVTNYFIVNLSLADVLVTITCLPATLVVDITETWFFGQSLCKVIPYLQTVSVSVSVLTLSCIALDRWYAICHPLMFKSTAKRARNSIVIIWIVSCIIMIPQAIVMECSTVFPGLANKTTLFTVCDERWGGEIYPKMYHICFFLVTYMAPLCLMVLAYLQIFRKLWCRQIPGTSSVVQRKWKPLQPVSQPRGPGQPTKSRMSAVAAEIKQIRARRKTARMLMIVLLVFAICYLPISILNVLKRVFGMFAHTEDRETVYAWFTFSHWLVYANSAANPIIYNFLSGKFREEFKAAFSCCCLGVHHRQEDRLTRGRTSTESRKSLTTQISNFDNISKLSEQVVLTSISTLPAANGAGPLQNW

[9] = biological target: T3, Orexin receptor type 2; experiment: Counterscreen assay for antagonists of the orexin 1 receptor (OX1R; HCRTR1): Homogeneous Time Resolved Fluorescence (HTRF)-based cell-based dose response assay for antagonists of the orexin 2 receptor (OX2R; HCRTR2), run by assay provider.; assay type: functional
[10] = biological target: T4, Orexin/Hypocretin receptor type 1 (Homo sapiens, UniProt O43613); experiment: (§1) Fluorescence-based cell-based high throughput dose response assay for antagonists of the orexin 1 receptor (OX1R; HCRTR1). [Related pubchem assays (depositor defined):AID434989, AID435008, AID463079, AID485270, AID492963, AID492964, AID492965, AID493232, AID504717, AID504718]; assay type: functional
T4 sequence (O43613 whole entry): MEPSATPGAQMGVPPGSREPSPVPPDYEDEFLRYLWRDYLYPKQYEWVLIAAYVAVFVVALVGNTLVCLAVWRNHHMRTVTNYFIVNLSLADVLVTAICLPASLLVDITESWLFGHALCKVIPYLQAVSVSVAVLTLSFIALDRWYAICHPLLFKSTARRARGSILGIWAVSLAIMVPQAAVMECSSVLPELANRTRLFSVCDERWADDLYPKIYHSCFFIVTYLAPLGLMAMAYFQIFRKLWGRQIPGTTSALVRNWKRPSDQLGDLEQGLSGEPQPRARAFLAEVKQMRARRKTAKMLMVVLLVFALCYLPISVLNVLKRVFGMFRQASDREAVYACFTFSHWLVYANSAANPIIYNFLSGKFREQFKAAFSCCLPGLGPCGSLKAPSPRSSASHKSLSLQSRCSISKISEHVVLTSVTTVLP

[11] = biological target: DNA dC->dU-editing enzyme APOBEC-3G (Homo sapiens, UniProt Q9HC16); experiment: Dose Response confirmation of small molecule APOBEC3G DNA Deaminase Inhibitors via a fluorescence-based single-stranded DNA deaminase assay. [Related pubchem assays (depositor defined):AID493012, AID493028]; assay type: functional
[12] = (§2) Counterscreen for antagonists of the orexin 1 receptor (OX1R; HCRTR1): Fluorescence-based cell-based high throughput dose response assay to identify antagonists of the parental CHO cell line. [Related pubchem assays (depositor defined):AID434989, AID435008, AID463079, AID485270, AID492963, AID492964, AID492965, AID493232, AID504699, AID504701]; assay type: functional
[13] = biological target: Ubiquitin carboxyl-terminal hydrolase BAP1 (Homo sapiens, UniProt Q92560); experiment: BAP1 deubiquitinase inhibitors, dose response, biochemical (AID 714); assay type: functional
[14] = test system: CHO-K1; experiment: as §2, with “Homogeneous time resolved fluorescence (HTRF)-based” for “Fluorescence-based”, “cell-based” for “cell-based high throughput”, “CHO-K1” for “CHO”; assay type: functional; conditions: Cricetulus griseus;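 also: potency for inhibition of ATP-stimulated IP1 production as antagonists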
[15] = biological target: T4, Orexin/Hypocretin receptor type 1; experiment: as §1, with “Homogeneous Time Resolved Fluorescence (HTRF)-based” for “Fluorescence-based”; assay type: functional

Sequence of Bifunctional protein GlmU (P9WMN3 whole entry): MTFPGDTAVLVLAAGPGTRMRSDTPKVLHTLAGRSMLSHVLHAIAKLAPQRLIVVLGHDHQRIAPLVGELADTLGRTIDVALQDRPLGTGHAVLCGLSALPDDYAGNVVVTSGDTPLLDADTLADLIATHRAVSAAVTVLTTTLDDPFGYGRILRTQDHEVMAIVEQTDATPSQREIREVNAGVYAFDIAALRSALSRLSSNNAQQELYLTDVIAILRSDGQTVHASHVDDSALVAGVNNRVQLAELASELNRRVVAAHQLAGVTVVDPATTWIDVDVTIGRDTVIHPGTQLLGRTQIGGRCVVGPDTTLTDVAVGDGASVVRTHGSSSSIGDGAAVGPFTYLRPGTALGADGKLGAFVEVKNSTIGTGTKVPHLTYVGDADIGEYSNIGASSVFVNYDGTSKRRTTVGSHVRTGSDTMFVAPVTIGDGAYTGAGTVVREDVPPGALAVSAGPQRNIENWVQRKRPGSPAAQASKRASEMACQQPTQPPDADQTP
Sequence of Large T antigen (P03070 whole entry): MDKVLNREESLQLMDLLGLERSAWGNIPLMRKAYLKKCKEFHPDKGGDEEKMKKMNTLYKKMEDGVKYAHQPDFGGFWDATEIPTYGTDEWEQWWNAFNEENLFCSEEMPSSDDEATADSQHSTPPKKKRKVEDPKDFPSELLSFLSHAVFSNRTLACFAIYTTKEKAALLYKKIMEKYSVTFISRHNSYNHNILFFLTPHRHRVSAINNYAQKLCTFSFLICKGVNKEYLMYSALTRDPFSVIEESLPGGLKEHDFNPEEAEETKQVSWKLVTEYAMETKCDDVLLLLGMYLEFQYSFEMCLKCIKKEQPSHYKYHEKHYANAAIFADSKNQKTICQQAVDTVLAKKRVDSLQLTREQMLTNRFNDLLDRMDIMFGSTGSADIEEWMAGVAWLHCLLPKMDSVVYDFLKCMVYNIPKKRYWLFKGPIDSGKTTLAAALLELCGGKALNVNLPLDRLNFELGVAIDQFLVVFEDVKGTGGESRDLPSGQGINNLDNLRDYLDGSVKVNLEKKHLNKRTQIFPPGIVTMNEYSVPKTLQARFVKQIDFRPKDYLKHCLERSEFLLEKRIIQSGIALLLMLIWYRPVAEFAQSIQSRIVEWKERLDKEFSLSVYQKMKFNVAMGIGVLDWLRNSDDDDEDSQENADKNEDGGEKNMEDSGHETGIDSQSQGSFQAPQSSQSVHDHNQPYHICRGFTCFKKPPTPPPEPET
Sequence of E3 ubiquitin-protein ligase XIAP (P98170 whole entry): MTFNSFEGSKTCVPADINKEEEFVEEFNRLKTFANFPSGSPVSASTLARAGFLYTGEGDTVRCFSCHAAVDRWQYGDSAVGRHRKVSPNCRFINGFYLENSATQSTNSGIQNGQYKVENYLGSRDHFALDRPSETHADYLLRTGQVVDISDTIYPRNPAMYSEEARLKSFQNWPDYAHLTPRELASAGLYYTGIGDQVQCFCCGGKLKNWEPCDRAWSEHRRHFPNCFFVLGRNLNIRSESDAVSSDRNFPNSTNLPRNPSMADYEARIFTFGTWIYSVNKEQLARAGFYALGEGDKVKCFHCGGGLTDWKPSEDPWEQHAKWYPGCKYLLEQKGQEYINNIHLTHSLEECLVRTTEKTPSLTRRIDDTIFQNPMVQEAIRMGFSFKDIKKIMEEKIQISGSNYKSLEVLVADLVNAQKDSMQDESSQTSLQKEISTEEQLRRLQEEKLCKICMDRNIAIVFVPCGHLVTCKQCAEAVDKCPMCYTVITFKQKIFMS
Sequence of Ubiquitin carboxyl-terminal hydrolase BAP1 (Q92560 whole entry): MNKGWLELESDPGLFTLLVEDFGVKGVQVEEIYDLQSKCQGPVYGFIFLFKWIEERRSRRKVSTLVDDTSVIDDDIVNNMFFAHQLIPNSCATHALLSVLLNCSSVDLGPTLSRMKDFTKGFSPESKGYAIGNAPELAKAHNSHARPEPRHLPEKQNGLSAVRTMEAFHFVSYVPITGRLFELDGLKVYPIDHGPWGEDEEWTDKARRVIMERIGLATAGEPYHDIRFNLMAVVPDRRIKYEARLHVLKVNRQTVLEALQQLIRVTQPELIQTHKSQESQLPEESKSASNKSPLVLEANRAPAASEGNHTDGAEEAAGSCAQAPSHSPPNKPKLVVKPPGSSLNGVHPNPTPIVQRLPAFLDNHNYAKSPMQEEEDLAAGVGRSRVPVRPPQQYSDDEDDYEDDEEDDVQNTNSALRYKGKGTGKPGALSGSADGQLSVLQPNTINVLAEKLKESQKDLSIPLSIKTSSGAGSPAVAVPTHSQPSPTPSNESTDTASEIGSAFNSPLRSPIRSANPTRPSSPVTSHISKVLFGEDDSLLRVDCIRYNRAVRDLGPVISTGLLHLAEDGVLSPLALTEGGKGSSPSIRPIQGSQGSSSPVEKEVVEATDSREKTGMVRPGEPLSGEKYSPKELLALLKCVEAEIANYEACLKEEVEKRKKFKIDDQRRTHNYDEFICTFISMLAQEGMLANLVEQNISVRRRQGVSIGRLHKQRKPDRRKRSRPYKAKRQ
Sequence of Genome polyprotein (P29990 2492-3391 limits assumed): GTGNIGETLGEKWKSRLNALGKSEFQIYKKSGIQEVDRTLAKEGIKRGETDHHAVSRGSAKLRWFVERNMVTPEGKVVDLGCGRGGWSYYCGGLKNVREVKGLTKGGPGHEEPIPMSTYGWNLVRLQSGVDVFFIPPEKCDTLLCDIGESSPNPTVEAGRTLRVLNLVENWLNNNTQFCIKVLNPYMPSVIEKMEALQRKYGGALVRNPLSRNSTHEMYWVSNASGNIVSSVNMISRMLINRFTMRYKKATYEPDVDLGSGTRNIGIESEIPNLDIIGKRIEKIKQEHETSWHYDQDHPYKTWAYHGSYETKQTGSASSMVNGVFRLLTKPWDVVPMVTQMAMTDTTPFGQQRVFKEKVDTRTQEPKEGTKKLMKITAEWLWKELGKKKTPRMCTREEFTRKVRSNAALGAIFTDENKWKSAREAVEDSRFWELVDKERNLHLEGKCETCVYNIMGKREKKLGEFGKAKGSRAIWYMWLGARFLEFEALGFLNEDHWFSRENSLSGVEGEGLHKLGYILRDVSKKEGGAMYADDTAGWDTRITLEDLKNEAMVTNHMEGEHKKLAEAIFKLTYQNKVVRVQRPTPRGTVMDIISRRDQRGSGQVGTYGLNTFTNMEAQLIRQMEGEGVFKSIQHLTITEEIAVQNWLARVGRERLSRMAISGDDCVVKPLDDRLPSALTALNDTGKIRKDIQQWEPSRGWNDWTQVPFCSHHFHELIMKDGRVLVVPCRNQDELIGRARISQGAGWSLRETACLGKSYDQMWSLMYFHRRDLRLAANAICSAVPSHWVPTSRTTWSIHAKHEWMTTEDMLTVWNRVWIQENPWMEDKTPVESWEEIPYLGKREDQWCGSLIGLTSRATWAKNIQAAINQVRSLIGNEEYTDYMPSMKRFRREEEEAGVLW
Sequence of DNA dC->dU-editing enzyme APOBEC-3G (Q9HC16 whole entry): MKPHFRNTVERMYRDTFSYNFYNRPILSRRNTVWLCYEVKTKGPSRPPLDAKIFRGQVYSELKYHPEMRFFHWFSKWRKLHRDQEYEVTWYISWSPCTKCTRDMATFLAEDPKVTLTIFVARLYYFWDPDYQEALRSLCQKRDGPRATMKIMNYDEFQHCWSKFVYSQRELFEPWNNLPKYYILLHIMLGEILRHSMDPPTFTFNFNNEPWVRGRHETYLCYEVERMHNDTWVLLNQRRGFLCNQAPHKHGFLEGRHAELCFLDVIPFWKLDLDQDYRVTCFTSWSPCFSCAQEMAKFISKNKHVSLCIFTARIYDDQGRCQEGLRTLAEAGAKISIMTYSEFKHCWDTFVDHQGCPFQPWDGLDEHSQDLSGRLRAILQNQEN
Sequence of Keap1/Nrf2 (Q16236 whole entry): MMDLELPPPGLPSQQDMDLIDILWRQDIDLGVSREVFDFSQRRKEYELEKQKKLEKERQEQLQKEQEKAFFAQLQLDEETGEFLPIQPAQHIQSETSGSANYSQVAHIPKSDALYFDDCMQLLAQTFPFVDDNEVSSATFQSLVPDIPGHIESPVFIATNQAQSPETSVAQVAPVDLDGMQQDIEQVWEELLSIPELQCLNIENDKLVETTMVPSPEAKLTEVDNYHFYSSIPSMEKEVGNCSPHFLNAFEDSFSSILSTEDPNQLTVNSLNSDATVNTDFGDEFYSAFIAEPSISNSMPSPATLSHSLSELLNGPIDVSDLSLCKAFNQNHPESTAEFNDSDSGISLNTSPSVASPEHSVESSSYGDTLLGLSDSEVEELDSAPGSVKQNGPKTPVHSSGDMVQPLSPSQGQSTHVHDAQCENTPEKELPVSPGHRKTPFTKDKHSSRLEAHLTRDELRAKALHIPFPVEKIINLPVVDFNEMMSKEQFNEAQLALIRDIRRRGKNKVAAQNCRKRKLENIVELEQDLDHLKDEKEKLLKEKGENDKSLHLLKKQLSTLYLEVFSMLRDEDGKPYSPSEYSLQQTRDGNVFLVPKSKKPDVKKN
Sequence of Keap1/Nrf2 (Q14145 whole entry): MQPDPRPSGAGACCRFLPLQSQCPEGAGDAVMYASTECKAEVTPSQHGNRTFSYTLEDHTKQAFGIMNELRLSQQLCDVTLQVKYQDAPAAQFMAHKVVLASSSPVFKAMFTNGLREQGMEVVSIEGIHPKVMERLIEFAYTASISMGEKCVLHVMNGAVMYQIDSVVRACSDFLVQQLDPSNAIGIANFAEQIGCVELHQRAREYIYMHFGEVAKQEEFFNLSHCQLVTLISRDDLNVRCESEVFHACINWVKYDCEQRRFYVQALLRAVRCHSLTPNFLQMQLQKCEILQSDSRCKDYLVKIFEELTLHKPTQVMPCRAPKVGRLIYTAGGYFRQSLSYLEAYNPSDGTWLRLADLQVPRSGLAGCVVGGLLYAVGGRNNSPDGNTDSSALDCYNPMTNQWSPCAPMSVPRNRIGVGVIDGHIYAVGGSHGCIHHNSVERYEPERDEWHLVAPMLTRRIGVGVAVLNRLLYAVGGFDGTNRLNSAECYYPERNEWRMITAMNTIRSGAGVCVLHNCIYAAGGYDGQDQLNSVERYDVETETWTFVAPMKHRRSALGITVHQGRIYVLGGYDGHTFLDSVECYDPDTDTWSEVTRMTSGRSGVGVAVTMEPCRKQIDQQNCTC

Row | Compound | AC50 [1] | AC50 [2] | IC50 [3] | IC50 [4] | IC50 [5] | IC50 [6] | IC50 [7] | IC50 [8] | IC50 [9] | IC50 [10] | IC50 [11] | IC50 [12] | IC50 [13] | IC50 [14] | IC50 [15]
1 | CC1=C(C#N)c2nc(N)c(C#N)c(C)c2/C1=C\c1ccc(-c2ccccc2C(=O)O)o1 | 15.3 µM (active) | > 20 µM (inactive) | 52.2 µM (active) | 27.2 µM (active) | > 20 µM (inactive) | 70.3 µM (active) | 86.6 µM (active) |  |  |  |  |  |  |  | 
2 | COC(=O)c1ccccc1NC(=O)c1sc(=S)n(C)c1N |  |  |  |  |  |  |  | 1.4 µM (active) | > 50 µM (inactive) | 1.41 µM (active) | 67.7 µM (active) | > 49.8 µM (inactive) | > 50 µM (not active) | > 66.2 µM (inactive) | 0.407 µM (active)
